Data: PubChem BioAssay AID2060909 (Molecular Pharmacology Branch, DTP, NCI, 2025)
Values joined by “and” are separate entries in the source; they are usually repeats but may differ in a detail not shown here. Identical values can stand only once.

Test system: 362531-283-R-J2-PDC complex spheroid viability
Experiment: Anticancer human tumor 362531-283-R-J2-PDC patient-derived colon adenocarcinoma cell line growth inhibition [RAS]
Conditions: for viability, T/C: stronger effect = lower value
Procedure, shortened: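 Multi-cell-type spheroids: tumor cells plus HUVEC endothelial cells and mesenchymal stem cells. RAS-pathway inhibitors were combined with targeted agents, each dosed in half-log steps down from clinical Cmax, or from 10 microM when Cmax was unknown.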
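Also: spheroids exposed to the agents for 7 days before readout.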
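For viability, T/C in this document: luminescence viability as percent of DMSO vehicle control wells.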

Compound: C=CC(=O)N1CCN(c2nc(OCC3CCCN3C)nc3c(F)c(-c4nc(N)cc(C)c4C(F)(F)F)c(Cl)cc23)C(C)C1 (stereo unspecified) + CCn1c(-c2cc(N3CCN(C)CC3)cnc2C(C)OC)c2c3cc(ccc31)-c1csc(n1)CC(NC(=O)C1CC1C)C(=O)N1CCCC(N1)C(=O)OCC(C)(C)C2
- IC50 (curve of first compound, second compound 0.000949 µM): > 1000 nM
- IC50 (curve of first compound, second compound 0.003 µM): > 1000 nM
- IC50 (curve of first compound, second compound 0.00949 µM): > 1000 nM
- IC50 (curve of first compound, second compound 0.03 µM): > 1000 nM
- IC50 (curve of first compound, second compound 0.0949 µM): > 1000 nM
- IC50 (curve of first compound, second compound 0.3 µM): < 3.16 nM
- viability, T/C (second compound 0.000949 µM, first compound 0.00316 µM): 101%
- viability, T/C (second compound 0.000949 µM, first compound 0.01 µM): 100%
- viability, T/C (second compound 0.000949 µM, first compound 0.0316 µM): 107%
- viability, T/C (second compound 0.000949 µM, first compound 0.1 µM): 92.5%
- viability, T/C (second compound 0.000949 µM, first compound 0.316 µM): 94.3%
- viability, T/C (second compound 0.000949 µM, first compound 1 µM): 103%
- viability, T/C (second compound 0.003 µM, first compound 0.00316 µM): 107%
- viability, T/C (second compound 0.003 µM, first compound 0.01 µM): 103%
- viability, T/C (second compound 0.003 µM, first compound 0.0316 µM): 97%
- viability, T/C (second compound 0.003 µM, first compound 0.1 µM): 92%
- viability, T/C (second compound 0.003 µM, first compound 0.316 µM): 104%
- viability, T/C (second compound 0.003 µM, first compound 1 µM): 91.7%
- viability, T/C (second compound 0.00949 µM, first compound 0.00316 µM): 93.7%
- viability, T/C (second compound 0.00949 µM, first compound 0.01 µM): 108%
- viability, T/C (second compound 0.00949 µM, first compound 0.0316 µM): 104%
- viability, T/C (second compound 0.00949 µM, first compound 0.1 µM): 99.1%
- viability, T/C (second compound 0.00949 µM, first compound 0.316 µM): 108%
- viability, T/C (second compound 0.00949 µM, first compound 1 µM): 106%
- viability, T/C (second compound 0.03 µM, first compound 0.00316 µM): 87.8%
- viability, T/C (second compound 0.03 µM, first compound 0.01 µM): 104%
- viability, T/C (second compound 0.03 µM, first compound 0.0316 µM): 86.8%
- viability, T/C (second compound 0.03 µM, first compound 0.1 µM): 81.1%
- viability, T/C (second compound 0.03 µM, first compound 0.316 µM): 95.7%
- viability, T/C (second compound 0.03 µM, first compound 1 µM): 101%
- viability, T/C (second compound 0.0949 µM, first compound 0.00316 µM): 88%
- viability, T/C (second compound 0.0949 µM, first compound 0.01 µM): 87.5%
- viability, T/C (second compound 0.0949 µM, first compound 0.0316 µM): 81.2%
- viability, T/C (second compound 0.0949 µM, first compound 0.1 µM): 80.3%
- viability, T/C (second compound 0.0949 µM, first compound 0.316 µM): 75.5%
- viability, T/C (second compound 0.0949 µM, first compound 1 µM): 90.5%
- viability, T/C (second compound 0.3 µM, first compound 0.00316 µM): 43%
- viability, T/C (second compound 0.3 µM, first compound 0.01 µM): 57%
- viability, T/C (second compound 0.3 µM, first compound 0.0316 µM): 41.2%
- viability, T/C (second compound 0.3 µM, first compound 0.1 µM): 45.9%
- viability, T/C (second compound 0.3 µM, first compound 0.316 µM): 45.9%
- viability, T/C (second compound 0.3 µM, first compound 1 µM): 35%

Compound: CC(C)NCC(C(=O)N1CCN(c2ncnc3c2C(C)CC3O)CC1)c1ccc(Cl)cc1 (stereo unspecified)
- viability, T/C (compound 0.0316 µM): 103% [middle of 4 runs]
- viability, T/C (compound 0.1 µM): 103% [middle of 4 runs]
- viability, T/C (compound 0.316 µM): 103% [middle of 4 runs]
- viability, T/C (compound 1 µM): 101% [middle of 4 runs]
- viability, T/C (compound 3.16 µM): 98.5% and 102% (2×) and 98.2%
- viability, T/C (compound 10 µM): 98.2% [middle of 4 runs]
- IC50 (curve of compound): > 10000 nM

Compound: CCc1c2c(nc3ccc(O)cc13)-c1cc3c(c(=O)n1C2)COC(=O)[C@]3(O)CC + C=CC(=O)N1CCN(c2nc(OCC3CCCN3C)nc3c(F)c(-c4nc(N)cc(C)c4C(F)(F)F)c(Cl)cc23)C(C)C1
- IC50 (curve of first compound, second compound 0.00316 µM): 24.6 nM
- IC50 (curve of first compound, second compound 0.01 µM): 24.2 nM
- IC50 (curve of first compound, second compound 0.0316 µM): 30.2 nM
- IC50 (curve of first compound, second compound 0.1 µM): 20.5 nM
- IC50 (curve of first compound, second compound 0.316 µM): 24.4 nM
- IC50 (curve of first compound, second compound 1 µM): 23.5 nM
- viability, T/C (second compound 0.00316 µM, first compound 0.000949 µM): 89.9%
- viability, T/C (second compound 0.00316 µM, first compound 0.003 µM): 104%
- viability, T/C (second compound 0.00316 µM, first compound 0.00949 µM): 61.3%
- viability, T/C (second compound 0.00316 µM, first compound 0.03 µM): 51.9%
- viability, T/C (second compound 0.00316 µM, first compound 0.0949 µM): 31.2%
- viability, T/C (second compound 0.00316 µM, first compound 0.3 µM): 26.8%
- viability, T/C (second compound 0.01 µM, first compound 0.000949 µM): 95.5%
- viability, T/C (second compound 0.01 µM, first compound 0.003 µM): 93.6%
- viability, T/C (second compound 0.01 µM, first compound 0.00949 µM): 84.6%
- viability, T/C (second compound 0.01 µM, first compound 0.03 µM): 42.4%
- viability, T/C (second compound 0.01 µM, first compound 0.0949 µM): 29.5%
- viability, T/C (second compound 0.01 µM, first compound 0.3 µM): 35.1%
- viability, T/C (second compound 0.0316 µM, first compound 0.000949 µM): 96.2%
- viability, T/C (second compound 0.0316 µM, first compound 0.003 µM): 91.8%
- viability, T/C (second compound 0.0316 µM, first compound 0.00949 µM): 72.7%
- viability, T/C (second compound 0.0316 µM, first compound 0.03 µM): 46.5%
- viability, T/C (second compound 0.0316 µM, first compound 0.0949 µM): 37.3%
- viability, T/C (second compound 0.0316 µM, first compound 0.3 µM): 20.7%
- viability, T/C (second compound 0.1 µM, first compound 0.000949 µM): 111%
- viability, T/C (second compound 0.1 µM, first compound 0.003 µM): 101%
- viability, T/C (second compound 0.1 µM, first compound 0.00949 µM): 54%
- viability, T/C (second compound 0.1 µM, first compound 0.03 µM): 54%
- viability, T/C (second compound 0.1 µM, first compound 0.0949 µM): 33%
- viability, T/C (second compound 0.1 µM, first compound 0.3 µM): 29.1%
- viability, T/C (second compound 0.316 µM, first compound 0.000949 µM): 87.2%
- viability, T/C (second compound 0.316 µM, first compound 0.003 µM): 92.4%
- viability, T/C (second compound 0.316 µM, first compound 0.00949 µM): 71.5%
- viability, T/C (second compound 0.316 µM, first compound 0.03 µM): 43.8%
- viability, T/C (second compound 0.316 µM, first compound 0.0949 µM): 37.1%
- viability, T/C (second compound 0.316 µM, first compound 0.3 µM): 24.5%
- viability, T/C (second compound 1 µM, first compound 0.000949 µM): 99.6%
- viability, T/C (second compound 1 µM, first compound 0.003 µM): 87.1%
- viability, T/C (second compound 1 µM, first compound 0.00949 µM): 71.9%
- viability, T/C (second compound 1 µM, first compound 0.03 µM): 42.3%
- viability, T/C (second compound 1 µM, first compound 0.0949 µM): 33.3%
- viability, T/C (second compound 1 µM, first compound 0.3 µM): 26.3%
